Measured values taken from paper doi:10.1101/2023.11.09.566481v1 (biorxiv, 2023).
Where two headings read alike, the source gives them in different places.

Key:
hSirt3^102-399 [1] = target: T1, hSirt3^102-399 (Homo sapiens, UniProt Q9NTG7); assay: biochemical; details: read-out: % Control Steady-state
T1 sequence (Q9NTG7 102-399): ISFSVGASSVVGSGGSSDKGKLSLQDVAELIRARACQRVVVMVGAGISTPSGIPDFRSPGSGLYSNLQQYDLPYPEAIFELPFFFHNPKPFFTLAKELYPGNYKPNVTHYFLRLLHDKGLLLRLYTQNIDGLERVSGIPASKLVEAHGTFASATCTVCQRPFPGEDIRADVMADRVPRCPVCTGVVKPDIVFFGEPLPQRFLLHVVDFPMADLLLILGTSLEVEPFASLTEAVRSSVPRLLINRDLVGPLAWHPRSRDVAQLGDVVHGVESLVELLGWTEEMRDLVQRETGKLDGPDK

hSirt3^102-399 [2] = target: T1, hSirt3^102-399; assay: biochemical; details: read-out: % Control Non-Steady state

remaining activity at 10 µM (hSirt3^102-399 [1]): 85.9%
remaining activity at 10 µM (hSirt3^102-399 [2]): 110%
Structure (SMILES): C=CCc1ccc(O)c(-c2ccc(O)c(CC=C)c2)c1 [Honokiol]
